Results taken from article PMC12133982, “Predominant T-cell epitopes of SARS-CoV-2 restricted by multiple prevalent HLA-B and HLA-C allotypes in Northeast Asia” (Frontiers in Immunology, 2025).
Peptide text beside a SMILES is read from it.

Experiments:
HLA-C0102 = HLA-C0102 (Homo sapiens, UniProt P10321, A176E/A330V/A35S/A97T/C350S/D114A/D33F/L171W/L180R/L218V/M285V/M309V/M331V/P208H/Q277E/Q291P/R121W/R243W/R30K/S123C/S140Y/S297R/T329A/T363A/V272M/V319A); test: Competitive peptide binding assay, CIR-C0102
Experimental: (§1) Then, competitive peptide binding assays were performed.

HLA-C0602 = HLA-C0602 (Homo sapiens, UniProt P10321, A176E/A330V/C350S/L171W/L180W/L218V/M285V/M309V/M331V/N104K/P208H/Q277E/Q291P/R121W/S101N/S123Y/S297R/T329A/T363A/V319A/V328M); test: Competitive peptide binding assay, CIR-C0602
HLA-B3501 = HLA-B3501 (Homo sapiens, UniProt P01889, A329T/A93T/A95T/C349S/D201E/D98Y/E176V/E187L/E204Q/E69T/I218V/K202T/L119I/Q94N/R155S/R180L/S121R/S35A/S48A/T118I/V127L/V306I/V36M/Y140S/Y91F); test: Competitive peptide binding assay, CIR-B3501; details: HMy2.CIR-B3501 cells, reference Cy5-[…], class from inhibition at 5 and 15 μM, flow cytometry MFI; read-out: Binding affinity with HLA-B3501
Experimental: as §1

HLA-B4601 = HLA-B4601 (Homo sapiens, UniProt P01889, A329T/A93R/C349S/D201E/E100V/E187L/E204Q/E69M/E70A/I90K/K202T/N87E/R155S/R180W/S121R/S35A/S48A/V306I/V36M/Y140S); test: Competitive peptide binding assay, CIR-B4601; details: for IC50: HMy2.CIR-B4601 cells, reference Cy5-[…], class from inhibition at 5 and 15 μM, flow cytometry MFI, read-out: Binding affinity with HLA-B4601
Experimental: as §1

HLA-B1502 = HLA-B1502 (Homo sapiens, UniProt P01889, A329T/A93T/A95T/C349S/D201E/D98Y/E187L/E204Q/E69M/E70A/H137Y/K202T/L119I/Q94N/R155S/R180L/S121R/S35A/S48A/T118I/V306I/V36M/Y140S/Y91S); test: Competitive peptide binding assay, CIR-B1502; details: HMy2.CIR-B1502 cells, reference Cy5-[…], class from inhibition at 5 and 15 μM, flow cytometry MFI; read-out: Binding affinity with HLA-B1502
Experimental: as §1

HLA-B1501 = HLA-B1501 (Homo sapiens, UniProt P01889, A329T/A93T/A95T/C349S/D201E/D98Y/E187L/E204Q/E69M/E70A/K202T/N87E/Q94N/R155S/R180W/S121R/S35A/S48A/V306I/V36M/Y140S/Y91S); test: Competitive peptide binding assay, CIR-B1501; details: HMy2.CIR-B1501 cells, reference Cy5-[…], class from inhibition at 5 and 15 μM, flow cytometry MFI; read-out: Binding affinity with HLA-B1501
Experimental: as §1

HLA-B5801 = HLA-B5801 (Homo sapiens, UniProt P01889, A329T/C349S/D201E/D98Y/E176V/E187L/E204Q/E69T/G107R/I218V/I90N/K202T/L105A/L119I/N104I/N87E/Q89R/Q94S/R106L/R155S/R180L/R86G/S101N/S121R/S35A/S48A/T118I/V127L/V306I/V36M/Y140S/Y91M); test: Competitive peptide binding assay, CIR-B5801; details: HMy2.CIR-B5801 cells, reference Cy5-[…], class from inhibition at 5 and 15 μM, flow cytometry MFI; read-out: Binding affinity with HLA-B5801
Experimental: as §1

[1] = read-out: Inhibition % of Cy5-reference peptide binding

SMILES	IC50 (HLA-C0602) [µM]	IC50 (HLA-B3501) [µM]	IC50 (HLA-B1502) [µM]	IC50 (HLA-B1501) [µM]	also measured
CC(C)C[C@H](NC(=O)[C@H](C)NC(=O)[C@@H](NC(=O)[C@@H](N)CC(C)C)[C@@H](C)O)C(=O)N[C@@H](CCCNC(=N)N)C(=O)N[C@@H](CC(C)C)C(=O)N[C@@H](CS)C(=O)N[C@@H](C)C(=O)N[C@@H](Cc1ccc(O)cc1)C(=O)O [Epitope M51] (H-LTALRLCAY-OH; N-terminus and C-terminus assumed)	< 5				IC50 (HLA-C0102; HMy2.CIR-C0102 cells, reference Cy5-[…], class from inhibition at 5 and 15 μM, flow cytometry MFI, read-out: Binding affinity with HLA-C0102): 5 to 15 µM; inhibition at 5 µM (HLA-C0102; [1]): 42.9%; inhibition at 15 µM (HLA-C0102; [1]): 77.6%
CC(C)C[C@H](NC(=O)[C@@H](NC(=O)[C@@H]1CCCN1C(=O)[C@H](CC(N)=O)NC(=O)[C@H](CC(=O)O)NC(=O)[C@H](Cc1ccccc1)NC(=O)[C@H](CCCNC(=N)N)NC(=O)[C@@H](N)CCCCN)C(C)C)C(=O)N1CCC[C@H]1C(=O)N[C@@H](Cc1ccccc1)C(=O)O [Epitope M125] (H-KRFDNPVLPF-OH; N-terminus and C-terminus assumed)	5 to 15				
CC(C)[C@H](NC(=O)CNC(=O)[C@H](CCC(=O)O)NC(=O)[C@H](CCCNC(=N)N)NC(=O)[C@@H]1CCCN1C(=O)[C@H](Cc1ccccc1)NC(=O)[C@H](Cc1c[nH]cn1)NC(=O)[C@H](C)N)C(=O)N[C@@H](Cc1ccccc1)C(=O)O [Epitope M157] (H-AHFPREGVF-OH; N-terminus and C-terminus assumed)	> 15				
CC[C@H](C)[C@H](N)C(=O)N[C@H](C(=O)N[C@@H](CC(=O)O)C(=O)N[C@@H](C)C(=O)N[C@H](C(=O)N[C@@H](CC(=O)O)C(=O)N[C@@H](CS)C(=O)N[C@@H](C)C(=O)N[C@@H](CC(C)C)C(=O)O)C(C)C)[C@@H](C)O [Epitope M161, ITDAVDCAL] (H-ITDAVDCAL-OH; N-terminus and C-terminus assumed)	> 15				
CC(C)[C@H](NC(=O)[C@H](Cc1ccc(O)cc1)NC(=O)[C@H](CCC(=O)O)NC(=O)[C@H](Cc1ccccc1)NC(=O)[C@@H](N)[C@@H](C)O)C(=O)N[C@@H](CO)C(=O)N[C@@H](CCC(N)=O)C(=O)N1CCC[C@H]1C(=O)N[C@@H](Cc1ccccc1)C(=O)O [Epitope M180] (H-TFEYVSQPF-OH; N-terminus and C-terminus assumed)	> 15				
CC[C@H](C)[C@H](NC(=O)[C@H](C)NC(=O)[C@@H](N)CC(C)C)C(=O)N[C@@H](CC(C)C)C(=O)N[C@H](C(=O)N[C@@H](C)C(=O)N[C@@H](CC(C)C)C(=O)N[C@@H](CCCNC(=N)N)C(=O)N[C@@H](CC(C)C)C(=O)O)[C@@H](C)O [Epitope Y7] (H-LAILTALRL-OH; N-terminus and C-terminus assumed)		5 to 15			IC50 (HLA-B4601): > 15 µM
CC(C)[C@H](NC(=O)CNC(=O)[C@H](Cc1c[nH]cn1)NC(=O)[C@@H]1CCCN1C(=O)[C@H](C)NC(=O)[C@H](CO)NC(=O)[C@@H](N)CCC(N)=O)C(=O)N[C@H](C(=O)N[C@@H](Cc1ccccc1)C(=O)O)C(C)C [Epitope Y146] (H-QSAPHGVVF-OH; N-terminus and C-terminus assumed)		> 15	5 to 15	< 5	
CC(C)C[C@H](NC(=O)[C@@H](NC(=O)[C@H](CCCNC(=N)N)NC(=O)[C@H](CO)NC(=O)[C@@H](NC(=O)[C@H](C)NC(=O)[C@@H](N)C(C)C)[C@@H](C)O)[C@@H](C)O)C(=O)N[C@@H](CO)C(=O)N[C@@H](Cc1ccc(O)cc1)C(=O)O [Epitope Y158] (H-VATSRTLSY-OH; N-terminus and C-terminus assumed)		5 to 15	5 to 15	< 5	IC50 (HLA-B5801): > 15 µM
CC[C@H](C)[C@H](NC(=O)CNC(=O)[C@H](CC(=O)O)NC(=O)[C@H](CCCCN)NC(=O)[C@H](CC(N)=O)NC(=O)[C@H](C)NC(=O)CNC(=O)[C@H](Cc1ccc(O)cc1)NC(=O)[C@@H]1CCCN1C(=O)[C@@H](N)CC(C)C)C(=O)O [Epitope Y273] (H-LPYGANKDGI-OH; N-terminus and C-terminus assumed)			5 to 15	> 15	IC50 (HLA-B5801): > 15 µM; IC50 (HLA-B4601): > 15 µM; inhibition at 5 µM (HLA-B4601; read-out: Inhibition % of Cy5-reference peptide binding, CIR-B4601, 5μM peptide): 11.6%; inhibition at 15 µM (HLA-B4601; read-out: Inhibition % of Cy5-reference peptide binding, CIR-B4601, 15μM peptide): 31%
